# According to the NIST ThermoML archive (doi:10.1016/j.jct.2017.04.009):
# Assay: xn = mol fraction of the nth substance listed
# Settings: Liquid, pressure decay method
structure (smiles),measurement,setting,value
CCCCCCn1cc[n+](C)c1.O=S(=O)([O-])C(F)(F)F [1-hexyl-3-methylimidazolium trifluoromethanesulfonate] + CCF,binary diffusion coefficient,"303.2 K, 94.5 kPa, x2 = 0",2.08e-10 m2/s
same,binary diffusion coefficient,"313.2 K, 103.8 kPa, x2 = 0",2.75e-10 m2/s
same,binary diffusion coefficient,"323.2 K, 97 kPa, x2 = 0",3.68e-10 m2/s
same,binary diffusion coefficient,"333.2 K, 94.4 kPa, x2 = 0",4.76e-10 m2/s
same,binary diffusion coefficient,"343.2 K, 98.1 kPa, x2 = 0",5.91e-10 m2/s
CCCCCCn1cc[n+](C)c1.O=S(=O)([O-])C(F)(F)F [1-hexyl-3-methylimidazolium trifluoromethanesulfonate] + FC(F)C(F)(F)F,binary diffusion coefficient,"303.2 K, 97.2 kPa, x2 = 0",2.38e-10 m2/s
same,binary diffusion coefficient,"313.2 K, 98.5 kPa, x2 = 0",3.05e-10 m2/s
same,binary diffusion coefficient,"323.2 K, 99.1 kPa, x2 = 0",4.17e-10 m2/s
same,binary diffusion coefficient,"333.2 K, 100.9 kPa, x2 = 0",5.25e-10 m2/s
same,binary diffusion coefficient,"343.2 K, 103.8 kPa, x2 = 0",6.19e-10 m2/s
CCCCCCn1cc[n+](C)c1.O=S(=O)([O-])C(F)(F)F [1-hexyl-3-methylimidazolium trifluoromethanesulfonate] + FCF,binary diffusion coefficient,"303.2 K, 98.2 kPa, x2 = 0",3.01e-10 m2/s
same,binary diffusion coefficient,"313.2 K, 102 kPa, x2 = 0",4.27e-10 m2/s
same,binary diffusion coefficient,"323.2 K, 99.3 kPa, x2 = 0",5.35e-10 m2/s
same,binary diffusion coefficient,"333.2 K, 100.2 kPa, x2 = 0",6.82e-10 m2/s
same,binary diffusion coefficient,"343.2 K, 100.4 kPa, x2 = 0",8.35e-10 m2/s
"C=C(F)C(F)(F)F [2,3,3,3-tetrafluoro-1-propene] + CCCCCC[n+]1ccn(C)c1.O=S(=O)([N-]S(=O)(=O)C(F)(F)F)C(F)(F)F",binary diffusion coefficient,"303.2 K, 96.7 kPa, x1 = 0",1.39e-10 m2/s
same,binary diffusion coefficient,"313.2 K, 95.6 kPa, x1 = 0",1.99e-10 m2/s
same,binary diffusion coefficient,"323.2 K, 97.7 kPa, x1 = 0",2.75e-10 m2/s
same,binary diffusion coefficient,"333.2 K, 98.3 kPa, x1 = 0",4.01e-10 m2/s
same,binary diffusion coefficient,"343.2 K, 102.9 kPa, x1 = 0",5.96e-10 m2/s
"C=C(F)C(F)(F)F [2,3,3,3-tetrafluoro-1-propene] + CCCCCCn1cc[n+](C)c1.F[B-](F)(F)F",binary diffusion coefficient,"303.2 K, 158.3 kPa, x1 = 0",6.9e-11 m2/s
same,binary diffusion coefficient,"313.2 K, 168.4 kPa, x1 = 0",1.02e-10 m2/s
same,binary diffusion coefficient,"323.2 K, 170 kPa, x1 = 0",1.59e-10 m2/s
same,binary diffusion coefficient,"333.2 K, 185.3 kPa, x1 = 0",2.47e-10 m2/s
same,binary diffusion coefficient,"343.2 K, 189 kPa, x1 = 0",3.59e-10 m2/s
FCF [difluoromethane] + CCCCCC[n+]1ccn(C)c1.O=S(=O)([N-]S(=O)(=O)C(F)(F)F)C(F)(F)F,binary diffusion coefficient,"303.2 K, 92.8 kPa, x1 = 0",1.55e-10 m2/s
same,binary diffusion coefficient,"313.2 K, 93.9 kPa, x1 = 0",2.15e-10 m2/s
same,binary diffusion coefficient,"323.2 K, 94.4 kPa, x1 = 0",2.77e-10 m2/s
same,binary diffusion coefficient,"333.2 K, 94.3 kPa, x1 = 0",3.68e-10 m2/s
same,binary diffusion coefficient,"343.2 K, 95.2 kPa, x1 = 0",4.78e-10 m2/s
CCF [fluoroethane] + CCCCCC[n+]1ccn(C)c1.O=S(=O)([N-]S(=O)(=O)C(F)(F)F)C(F)(F)F,binary diffusion coefficient,"303.2 K, 90.2 kPa, x1 = 0",1.28e-10 m2/s
same,binary diffusion coefficient,"313.2 K, 91.1 kPa, x1 = 0",2.08e-10 m2/s
same,binary diffusion coefficient,"323.2 K, 93.4 kPa, x1 = 0",2.96e-10 m2/s
same,binary diffusion coefficient,"333.2 K, 93 kPa, x1 = 0",3.46e-10 m2/s
same,binary diffusion coefficient,"343.2 K, 92.5 kPa, x1 = 0",4.13e-10 m2/s
CCF [fluoroethane] + CCCCCCn1cc[n+](C)c1.F[B-](F)(F)F,binary diffusion coefficient,"303.2 K, 101 kPa, x1 = 0",1.23e-10 m2/s
same,binary diffusion coefficient,"313.2 K, 97.7 kPa, x1 = 0",1.91e-10 m2/s
same,binary diffusion coefficient,"323.2 K, 104.5 kPa, x1 = 0",2.54e-10 m2/s
same,binary diffusion coefficient,"333.2 K, 102.4 kPa, x1 = 0",3.36e-10 m2/s
same,binary diffusion coefficient,"343.2 K, 101.6 kPa, x1 = 0",4.2e-10 m2/s
FC(F)C(F)(F)F [pentafluoroethane] + CCCCCC[n+]1ccn(C)c1.O=S(=O)([N-]S(=O)(=O)C(F)(F)F)C(F)(F)F,binary diffusion coefficient,"303.2 K, 93.2 kPa, x1 = 0",1.02e-10 m2/s
same,binary diffusion coefficient,"313.2 K, 94.5 kPa, x1 = 0",1.48e-10 m2/s
same,binary diffusion coefficient,"323.2 K, 95.6 kPa, x1 = 0",2.24e-10 m2/s
same,binary diffusion coefficient,"333.2 K, 95.7 kPa, x1 = 0",3.13e-10 m2/s
same,binary diffusion coefficient,"343.2 K, 100.2 kPa, x1 = 0",4.21e-10 m2/s
